Source: BindingDB's records for doi:10.1021/cc0501561 (East China Univesity of Science and Technology, 2006)

Target: Peptidyl-prolyl cis-trans isomerase A (Homo sapiens, UniProt P62937)
Experiment: Surface Plasmon Resonance Assay
Conditions: pH 7.4; 25 °C
Experimental: CypA in vitro were determined by employing surface plasmon resonance (SPR) technology.

Sequence of Peptidyl-prolyl cis-trans isomerase A (P62937 whole entry): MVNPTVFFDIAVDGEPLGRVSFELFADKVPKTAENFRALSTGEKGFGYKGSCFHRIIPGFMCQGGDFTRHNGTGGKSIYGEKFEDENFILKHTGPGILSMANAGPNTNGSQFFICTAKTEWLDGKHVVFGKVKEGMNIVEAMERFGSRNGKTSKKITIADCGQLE

Row | Compound | Kd [µM] | IC50 [µM]
1 | CC(C)(C)NC(=O)[C@@H]1Cc2ccccc2CN1Cc1cc(-c2cccc(Cl)c2)nc2ccccc12 [CypA Inhibitor, 1a] | 24.3 | 
2 | CC(C)(C)NC(=O)[C@@H]1Cc2ccccc2CN1Cc1cc(-c2ccc3ccccc3c2)nc2ccccc12 [CypA Inhibitor, 1b] | 3.07 | 
3 | c1ccc2cc(-c3cc(CN4CCCCC4)c4ccccc4n3)ccc2c1 [CypA Inhibitor, 1c] | 0.212 | 
4 | CCOC(=O)[C@@H]1CCCN(Cc2cc(-c3ccc4ccccc4c3)nc3ccccc23)C1 [CypA Inhibitor, 1d] | 17.2 | 
5 | CCN(CC)C(=O)CNCc1cc(-c2ccc3ccccc3c2)nc2ccccc12 [CypA Inhibitor, 1e] | 3.41 | 
6 | CC(C)CCOC(=O)Nc1cc(-c2ccc3ccccc3c2)nc2ccccc12 [CypA Inhibitor, 2a] | 0.0762 | 
7 | CCOC(=O)[C@H]1CCCN(C(=O)Nc2cc(-c3cccc(Cl)c3)nc3ccccc23)C1 [CypA Inhibitor, 2b] | 28.8 | 
8 | COC(=O)c1cc(C(=O)Nc2cc(-c3cccc(Cl)c3)nc3ccccc23)ccc1NCc1ccccc1 [CypA Inhibitor, 3a] | 8.18 | 
9 | COC(=O)c1cc(C(=O)Nc2ccc(S(=O)(=O)Nc3onc(C)c3C)cc2)ccc1NCc1ccccc1 [CypA Inhibitor, 3b] | 10.8 | 
10 | COC(=O)c1cc(NC(=O)c2ccc3nc(-c4ccco4)c(-c4ccco4)nc3c2)ccc1NCc1ccccc1 [CypA Inhibitor, 4a] | 8.19 | 0.25
11 | Cc1noc(NS(=O)(=O)c2ccc(NC(=O)c3ccc4nc(-c5ccco5)c(-c5ccco5)nc4c3)cc2)c1C [CypA Inhibitor, 4b] | 27.3 | 
12 | Cc1ccnc(NS(=O)(=O)c2ccc(NC(=O)c3ccc4nc(-c5ccco5)c(-c5ccco5)nc4c3)cc2)n1 [CypA Inhibitor, 4c] | 41 | 6.43
13 | Cc1cc(C)nc(NS(=O)(=O)c2ccc(NC(=O)c3ccc4nc(-c5ccco5)c(-c5ccco5)nc4c3)cc2)n1 [CypA Inhibitor, 4d] | 30.8 | 
14 | Cc1cc(NS(=O)(=O)c2ccc(NC(=O)c3ccc4nc(-c5ccco5)c(-c5ccco5)nc4c3)cc2)no1 [CypA Inhibitor, 4e] | 38.7 | 2.86
15 | O=C(Nc1ccc(S(=O)(=O)Nc2ncccn2)cc1)c1ccc2nc(-c3ccco3)c(-c3ccco3)nc2c1 [CypA Inhibitor, 4f] | 22.8 | 0.96
16 | O=C(Nc1ccc(S(=O)(=O)Nc2cnc3ccccc3n2)cc1)c1ccc2nc(-c3ccco3)c(-c3ccco3)nc2c1 [CypA Inhibitor, 4g] | 35.3 | 0.78
